Reference: patent US20110081315A1, “NOVEL MACROCYCLIC INHIBITORS OF HEPATITIS C VIRUS REPLICATION” (INTERMUNE, INC., priority 2009, published 2011)
pEC50, pIC50: −log10 of the molar value.

Experiments:
hepatitis C replicon = hepatitis C replicon EC50 assay; assay type: cell-based; details: Hepatitis C virus; hepatitis C replicon; read-out: EC50
Excerpt: (§1) NS3-NS4 inhibition activity can be determined using known assay methods. For example, NS3/NS4 complexes may be formed and inhibitory concentrations of test compounds determined as described in U.S. Patent Application Publication Number 2007/0054842 paragraph numbers 1497-1509, which is incorporated herein by reference in its entirety. Similarly, hepatitis C replicon EC50 may be determined using known assay methods such as described in U.S. Patent Application Publication Number 2007/0054842 paragraph numbers 1510-1515, which is incorporated herein by reference in its entirety. Assays may be conducted at ambient temperature (23° C.) in assay buffer containing 50 mM Tris-HCl, pH 7.5, 15% glycerol, 0.6 mM Lauryldimethylamine Oxide (LDAO), 25 μM NS4A peptide, and 10 mM Dithiothreitol (DTT).

NS3/NS4 complexes = NS3/NS4 complexes (Hepatitis C virus genotype 1a, UniProt P27958); assay: NS3/NS4 inhibition assay (IC50); assay type: biochemical; details: NS3/NS4 activity; 23° C., 25 μM NS4A peptide
Sequence of NS3/NS4 complexes (P27958 1027-1657, one chain of several): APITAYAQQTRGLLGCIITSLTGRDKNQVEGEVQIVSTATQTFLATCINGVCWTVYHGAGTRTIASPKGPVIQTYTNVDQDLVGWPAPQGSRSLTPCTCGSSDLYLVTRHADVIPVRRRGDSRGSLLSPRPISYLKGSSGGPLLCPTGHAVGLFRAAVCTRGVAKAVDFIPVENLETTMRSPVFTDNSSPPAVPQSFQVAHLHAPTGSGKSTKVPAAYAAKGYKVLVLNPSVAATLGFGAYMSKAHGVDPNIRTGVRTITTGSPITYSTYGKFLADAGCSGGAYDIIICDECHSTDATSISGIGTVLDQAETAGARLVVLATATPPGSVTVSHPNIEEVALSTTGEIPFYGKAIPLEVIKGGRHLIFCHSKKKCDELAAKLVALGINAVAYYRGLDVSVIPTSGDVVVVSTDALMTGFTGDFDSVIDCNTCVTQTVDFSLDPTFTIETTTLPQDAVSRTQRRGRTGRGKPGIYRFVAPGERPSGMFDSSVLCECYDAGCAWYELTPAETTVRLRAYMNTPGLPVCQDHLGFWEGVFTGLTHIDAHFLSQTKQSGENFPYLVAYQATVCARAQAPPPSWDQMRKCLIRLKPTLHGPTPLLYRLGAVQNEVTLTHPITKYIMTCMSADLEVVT
Excerpt: as §1

SMILES	pEC50 (hepatitis C replicon)	pIC50 (NS3/NS4 complexes)
COc1ccc2c(O[C@@H]3C[C@H]4C(=O)N[C@]5(C(=O)NS(=O)(=O)C6(C)CC6)C[C@H]5/C=C\CCCCC[C@H](Nc5cccc(C(=O)N6CCOCC6Cc6ccccc6)c5)C(=O)N4C3)cc(-c3nc(C(C)C)cs3)nc2c1C (stereo partly drawn) [Compound 122]	7.00 to 8.00	> 8.00
COc1ccc2c(O[C@@H]3C[C@H]4C(=O)N[C@]5(C(=O)NS(=O)(=O)C6(C)CC6)C[C@H]5/C=C\CCCCC[C@H](Nc5ccccn5)C(=O)N4C3)cc(-c3nc(C(C)C)cs3)nc2c1C [Compound 1002]	> 8.00	> 8.00
CC(C)n1c(O[C@@H]2C[C@H]3C(=O)N[C@]4(C(=O)O)C[C@H]4/C=C\CCCCC[C@H](Nc4ccc(F)cc4)C(=O)N3C2)nc2c(-c3nc(C4CCCC4)cs3)cccc21 [Compound 1762]	< 7.00	7.00 to 8.00
CC(C)n1c(O[C@@H]2C[C@H]3C(=O)N[C@]4(C(=O)NS(=O)(=O)C5(C)CC5)C[C@H]4/C=C\CCCCC[C@H](NC(=O)OC(C)(C)C)C(=O)N3C2)nc2c(-c3nc(-c4ccccc4F)cs3)cccc21 [Compound 1710]	7.00 to 8.00	> 8.00
CC(C)n1c(O[C@@H]2C[C@H]3C(=O)N[C@]4(C(=O)O)C[C@H]4/C=C\CCCCC[C@H](NC(=O)OC(C)(C)C)C(=O)N3C2)nc2ccccc21 [Compound 208]	< 7.00	> 8.00
Cc1sc(-c2cccc3c2nc(O[C@@H]2C[C@H]4C(=O)N[C@]5(C(=O)NS(=O)(=O)N(C)C)C[C@H]5/C=C\CCCCC[C@H](NC(=O)OC(C)(C)C)C(=O)N4C2)n3C(C)C)nc1C(C)C [Compound 231]	7.00 to 8.00	> 8.00
COc1ccc(-c2cccc3c2nc(O[C@@H]2C[C@H]4C(=O)N[C@]5(C(=O)NS(=O)(=O)N(C)C)C[C@H]5/C=C\CCCCC[C@H](NC(=O)OC(C)(C)C)C(=O)N4C2)n3C(C)C)cn1 [Compound 1739]	7.00 to 8.00	> 8.00
COc1cnc(O[C@@H]2C[C@H]3C(=O)N[C@]4(C(=O)NS(=O)(=O)C5(C)CC5)C[C@H]4/C=C\CCCCC[C@H](Nc4cccc(F)c4)C(=O)N3C2)c2cc(Cl)ccc12 [Compound 1101]	> 8.00	> 8.00
CC(C)c1nc2ccccc2nc1O[C@@H]1C[C@H]2C(=O)N[C@]3(C(=O)NS(=O)(=O)C4(C)CC4)C[C@H]3/C=C\CCCCC[C@H](Nc3ccccc3)C(=O)N2C1 [Compound 311]	7.00 to 8.00	> 8.00
CC(C)n1c(O[C@@H]2C[C@H]3C(=O)N[C@]4(C(=O)NS(=O)(=O)N(C)C)C[C@H]4/C=C\CCCCC[C@H](NC(=O)OC(C)(C)C)C(=O)N3C2)nc2cc(-c3ccccc3)ccc21 [Compound 262]	7.00 to 8.00	> 8.00
CCOC(=O)Nc1cccc2c1nc(O[C@@H]1C[C@H]3C(=O)N[C@]4(C(=O)NS(=O)(=O)C5(C)CC5)C[C@H]4/C=C\CCCCC[C@H](Nc4ccccc4)C(=O)N3C1)n2C(C)C [Compound 1409]	> 8.00	> 8.00
CC1(S(=O)(=O)NC(=O)[C@@]23C[C@H]2/C=C\CCCCC[C@H](Nc2ccccc2)C(=O)N2C[C@H](n4nnc5ccccc54)C[C@H]2C(=O)N3)CC1 [Compound 1502]	< 7.00	> 8.00
CC(C)n1c(O[C@@H]2C[C@H]3C(=O)N[C@]4(C(=O)NS(=O)(=O)N(C)C)C[C@H]4/C=C\CCCCC[C@H](NC(=O)OC(C)(C)C)C(=O)N3C2)nc2c(C(=O)N(C)C)cccc21 [Compound 279]	< 7.00	> 8.00
CC(C)n1cnc2cc(O[C@@H]3C[C@H]4C(=O)N[C@]5(C(=O)NS(=O)(=O)C6(C)CC6)C[C@H]5/C=C\CCCCC[C@H](NC(=O)OC(C)(C)C)C(=O)N4C3)ccc21 [Compound 297]	< 7.00	> 8.00
CCCc1nc(-c2cccc3c2nc(O[C@@H]2C[C@H]4C(=O)N[C@]5(C(=O)NS(=O)(=O)N(C)C)C[C@H]5/C=C\CCCCC[C@H](NC(=O)OC(C)(C)C)C(=O)N4C2)n3C(C)C)oc1C [Compound 1206]	> 8.00	> 8.00
CC(C)n1c(O[C@@H]2C[C@H]3C(=O)N[C@]4(C(=O)NS(=O)(=O)N(C)C)C[C@H]4/C=C\CCCCC[C@H](NC(=O)OC(C)(C)C)C(=O)N3C2)nc2cnccc21 [Compound 209]	7.00 to 8.00	> 8.00
CC(C)n1c(O[C@@H]2C[C@H]3C(=O)N[C@]4(C(=O)NS(=O)(=O)N(C)C)C[C@H]4/C=C\CCCCC[C@H](NC(=O)OC(C)(C)C)C(=O)N3C2)nc2c(-c3nc(Cc4ccccc4Cl)cs3)cccc21 [Compound 1760]	7.00 to 8.00	> 8.00
Cc1cc(F)cc(-c2cccc3c2nc(O[C@@H]2C[C@H]4C(=O)N[C@]5(C(=O)NS(=O)(=O)C6(C)CC6)C[C@H]5/C=C\CCCCC[C@H](Nc5ccccc5)C(=O)N4C2)n3C(C)C)c1 [Compound 245]	< 7.00	> 8.00

SMILES	pEC50 (hepatitis C replicon)	pIC50 (NS3/NS4 complexes)
CC(C)n1c(O[C@@H]2C[C@H]3C(=O)N[C@]4(C(=O)O)C[C@H]4/C=C\CCCCC[C@H](Nc4cccc(F)c4)C(=O)N3C2)nc2c(-c3nc(C4CCCC4)cs3)cccc21 [Compound 1763]	< 7.00	7.00 to 8.00
CC(C)n1c(O[C@@H]2C[C@H]3C(=O)N[C@]4(C(=O)NS(=O)(=O)C5(C)CC5)C[C@H]4/C=C\CCCCC[C@H](NC(=O)OC(C)(C)C)C(=O)N3C2)nc2c(-c3nc(-c4ccc(F)cc4)cs3)cccc21 [Compound 1711]	> 8.00	> 8.00
CC(C)n1c(O[C@@H]2C[C@H]3C(=O)N[C@]4(C(=O)NS(=O)(=O)N(C)C)C[C@H]4/C=C\CCCCC[C@H](NC(=O)OC(C)(C)C)C(=O)N3C2)nc2c(-c3nc(-c4cccnc4)cs3)cccc21 [Compound 1736]	> 8.00	> 8.00
CCC(C)n1c(O[C@@H]2C[C@H]3C(=O)N[C@]4(C(=O)NS(=O)(=O)N(C)C)C[C@H]4/C=C\CCCCC[C@H](NC(=O)OC(C)(C)C)C(=O)N3C2)nc2ccccc21 (stereo partly drawn) [Compound 1224]	> 8.00	> 8.00
CCCc1nc(-c2cccc3c2nc(O[C@@H]2C[C@H]4C(=O)N[C@]5(C(=O)NS(=O)(=O)N(C)C)C[C@H]5/C=C\CCCCC[C@H](NC(=O)OC(C)(C)C)C(=O)N4C2)n3C(C)C)sc1C [Compound 1209]	> 8.00	> 8.00
CCn1c(O[C@@H]2C[C@H]3C(=O)N[C@]4(C(=O)NS(=O)(=O)N(C)C)C[C@H]4/C=C\CCCCC[C@H](NC(=O)OC(C)(C)C)C(=O)N3C2)nc2c(-c3nc(C(C)C)cs3)cccc21 [Compound 1430]	7.00 to 8.00	> 8.00
CN(C)S(=O)(=O)NC(=O)[C@@]12C[C@H]1/C=C\CCCCC[C@H](NC(=O)OC(C)(C)C)C(=O)N1C[C@H](Oc3nc4ccccc4nc3-c3ccc(F)cc3)C[C@H]1C(=O)N2 [Compound 308]	7.00 to 8.00	> 8.00
CC(C)n1c(O[C@@H]2C[C@H]3C(=O)N[C@]4(C(=O)NS(=O)(=O)N(C)C)C[C@H]4/C=C\CCCCC[C@H](NC(=O)OC(C)(C)C)C(=O)N3C2)nc2c(-c3nc(-c4ccccc4Cl)cs3)cccc21 [Compound 1749]	7.00 to 8.00	> 8.00
CC(C)n1c(O[C@@H]2C[C@H]3C(=O)N[C@]4(C(=O)NS(=O)(=O)N(C)C)C[C@H]4/C=C\CCCCC[C@H](NC(=O)OC(C)(C)C)C(=O)N3C2)nc2c(C(=O)NCc3ccccc3)cccc21 [Compound 283]	> 8.00	> 8.00
CC(C)n1c(O[C@@H]2C[C@H]3C(=O)N[C@]4(C(=O)NS(=O)(=O)C5(C)CC5)C[C@H]4/C=C\CCCCC[C@H](Nc4ccccc4)C(=O)N3C2)nc2c(C(=O)NCCc3ccccc3)cccc21 [Compound 275]	7.00 to 8.00	> 8.00
Cc1nc2cc(O[C@@H]3C[C@H]4C(=O)N[C@]5(C(=O)NS(=O)(=O)C6(C)CC6)C[C@H]5/C=C\CCCCC[C@H](Nc5ccccc5)C(=O)N4C3)ccc2o1 [Compound 1252]	7.00 to 8.00	> 8.00
CCNC(=O)c1cccc2c1nc(O[C@@H]1C[C@H]3C(=O)N[C@]4(C(=O)NS(=O)(=O)N(C)C)C[C@H]4/C=C\CCCCC[C@H](NC(=O)OC(C)(C)C)C(=O)N3C1)n2C(C)C [Compound 280]	> 8.00	> 8.00
CC(C)n1c(O[C@@H]2C[C@H]3C(=O)N[C@]4(C(=O)NS(=O)(=O)C5(C)CC5)C[C@H]4/C=C\CCCCC[C@H](Nc4ccccc4)C(=O)N3C2)nc2c(-c3cccc(OC(F)(F)F)c3)cccc21 [Compound 247]	< 7.00	> 8.00
CC(C)c1nc(-c2cccc3c2nc(O[C@@H]2C[C@H]4C(=O)N[C@]5(C(=O)NS(=O)(=O)C6(C)CC6)C[C@H]5/C=C\CCCCC[C@H](NC(=O)OC(C)(C)C)C(=O)N4C2)n3C(C)C)sc1C(C)C [Compound 1213]	7.00 to 8.00	> 8.00
Cn1cnc2ccc(O[C@@H]3C[C@H]4C(=O)N[C@]5(C(=O)NS(=O)(=O)C6(C)CC6)C[C@H]5/C=C\CCCCC[C@H](NC(=O)OC(C)(C)C)C(=O)N4C3)cc21 [Compound 296]	< 7.00	> 8.00
CCn1c(O[C@@H]2C[C@H]3C(=O)N[C@]4(C(=O)NS(=O)(=O)N(C)C)C[C@H]4/C=C\CCCCC[C@H](NC(=O)OC(C)(C)C)C(=O)N3C2)nc2c(-c3nc(C(C)C)c(C)o3)cccc21 [Compound 1204]	> 8.00	> 8.00
COc1ccc(-c2nnn([C@@H]3C[C@H]4C(=O)N[C@]5(C(=O)NS(=O)(=O)C6(C)CC6)C[C@H]5/C=C\CCCCC[C@H](Nc5ccccc5)C(=O)N4C3)n2)cc1 [Compound 804]	7.00 to 8.00	> 8.00
CC(C)n1c(O[C@@H]2C[C@H]3C(=O)N[C@]4(C(=O)NS(=O)(=O)C5(C)CC5)C[C@H]4/C=C\CCCCC[C@H](Nc4ccccc4)C(=O)N3C2)nc2c(-c3ccccc3F)cccc21 [Compound 242]	7.00 to 8.00	> 8.00
